The results in this text go back to US20250268873A1, “COMBINATION OF DUAL ATM AND DNA-PK INHIBITORS AND IMMUNOTHERAPEUTIC AGENTS FOR USE IN CANCER THERAPY” (XRAD THERAPEUTICS, INC., priority 2021, published 2025).

The assay deals with TBK1. Kind of assay: Immunoblot of TBK1 phosphorylation in HCT116 cells. The conditions noted are these: HCT116 p53 wild-type and p53−/− cells; 1 μM single agents, combination 0.5 or 1 micromolar each. The class given is cell-based, human. From the text: Antibodies recognizing phosphorylated/activated ATM (S1981, #ab81292) and DNA-PKcs (S2056, #ab18192) were purchased from Abcam Biotechnology (Cambridge, MA). Antibodies to ATM (#A1106) and DNA-PKcs (#ab1832) were from Sigma and Abcam, respectively. Phospho-KAP1 (S824, #A300-767A) and KAP1 (A700-014) antibodies were from Bethyl Labs (Montgomery, TX). Phospho-TBK1 (#5483), cGAS (#15102), and pSTING (S366, #19781S) antibodies were from Cell Signaling Technology (CST) (Danvers, MA). STING (PA5-23381) antibodies were from ThermoFisher Scientific (Waltham, MA), and actin (#A5316) antibodies were from Sigma. All antibodies were diluted 1:1000 with the exception of actin which was diluted 1:3000 in 1×TBST (1×TBS-10×TBS, (Corning, 46-012-CM), 0.05% Tween-20 (P7949) Sigma and 1% BSA. Secondary antibodies used were (a) Li-Cor method-Goat anti-Rabbit (926-3221) and Goat anti-Mouse (926-68020) Li-Cor (b) ECL method: Anti-rabbit IgG, HRP-linked (#7074S), CST.
Cells were pretreated with Compound 569 at 20, 100, 500, or 1000 nM or DMSO for 30 min and then irradiated with 0 or 10 Gy (XRAD 160, Precision X Ray) as shown in FIG. 1. In FIG. 3, cells were pretreated with Compound 569 at 1 μM, ATMi (AZD0156) at 1 μM, DNA-PKi (peposertib) at 1 μM as single agents or DMSO or with ATMi and DNA-PKi in combination at 0.5 micromolar each or at 1 micromolar each for 30 min and then irradiated with 0 or 10 Gy (XRAD 160, Precision X Ray) as shown in FIG. 1. One hour after IR, cells were lysed in RIPA buffer ([…], pH 8.0, 150 mM NaCl, 0.1% SDS, 0.5% sodium deoxycholate, 1% IGEPAL® CA-630 (Sigma, 18896) for 20 min at 4° C. in the presence of protease and phosphatase inhibitor cocktails (Roche, #04693159001 & #04906837001). Cell lysates were centrifuged at 13,200 g for 10 min at 4° C. and supernatants were analyzed for protein content using BCA assay (Pierce™ BCA Protein Assay Kit, cat #23227, ThermoFisher Waltham, MA 02451) and equal amounts of protein/lane were used for subsequent immunoblot analyses. Proteins were denatured by adding NuPAGE LSD Sample Buffer [4×] […]
(In general: In western blotting, separated proteins are transferred to a membrane and probed.)

SMILES strings stand for the structures.

Consider `CC(C)NCCOc1ncc(-c2cc3c4c(cnc3cc2F)N(C)C(=O)C42CCC2)cc1NS(C)(=O)=O` [Compound 569, N-(5-(7′-Fluoro-3′-methyl-2′-oxo-2′,3′-dihydrospiro[cyclobutane-1,1′-pyrrolo[2,3-c]quinolin]-8′-yl)-2-(2-(isopropylamino)ethoxy)pyridin-3-yl)methanesulfonamide], for which the “phosphorylation of TBK1” value is given as “more potent activator of TBK1 phosphorylation than either of the single target kinase inhibitors”.
